Results from ChEMBL document CHEMBL1201862, “PubChem BioAssay data set” (2004).
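Test compounds were applied to cells in 96-well plates for 48 hours at 5 doses. GI50: concentration for 50% inhibition of growth.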 The source made the active and inactive calls. Rule as the data show it: active = GI50 up to about 1.1 µM and inactive = higher.

What was measured:
Assay in all cases: DTP human tumour cell line panel, 48 h
[1] = tested on: NCI-H522
[2] = tested on: Malme-3M
[3] = tested on: SK-MEL-2
[4] = tested on: SK-MEL-28
[5] = tested on: SF-268
[6] = tested on: UO-31
[7] = tested on: M14
[8] = tested on: SF-295
[9] = tested on: PC-3
[10] = tested on: TK-10
[11] = tested on: MDA-MB-231
[12] = tested on: COLO 205
[13] = tested on: U-251
[14] = tested on: EKVX
[15] = tested on: CAKI-1
[16] = tested on: SNB-19
[17] = tested on: SNB-75
[18] = tested on: HOP-62
[19] = tested on: BT-549
[20] = tested on: SR

Row | Compound | GI50 [1] | GI50 [2] | GI50 [3] | GI50 [4] | GI50 [5] | GI50 [6] | GI50 [7] | GI50 [8] | GI50 [9] | GI50 [10] | GI50 [11] | GI50 [12] | GI50 [13] | GI50 [14] | GI50 [15] | GI50 [16] | GI50 [17] | GI50 [18] | GI50 [19] | GI50 [20]
1 | O/N=C1\C=Cc2nn(-c3ccccc3)nc2\C1=N/O | 2.94 µM (inactive) | 17.7 µM (inactive) | 30.3 µM (inactive) | 6.21 µM (inactive) | 4.27 µM (inactive) | 3.15 µM (inactive) | 5.79 µM (inactive) | 4.89 µM (inactive) | 3.25 µM (inactive) | 17.8 µM (inactive) | 4.06 µM (inactive) | 3.7 µM (inactive) | 7.16 µM (inactive) | 5.41 µM (inactive) | 4.27 µM (inactive) | 5.5 µM (inactive) | 15.6 µM (inactive) | 4.3 µM (inactive) | 3.4 µM (inactive) | 3.64 µM (inactive)
2 | COc1ccc(C2=CN3CCC[C@H]3C=C2c2cc(O)c(OC)c(OC)c2)cc1OC | 0.00418 µM (active) | 0.00421 µM (active) | 0.00314 µM (active) | 0.0045 µM (active) | 0.00454 µM (active) | 0.0108 µM (active) | 0.00325 µM (active) | 0.00446 µM (active) | 0.0124 µM (active) | 0.00859 µM (active) | 0.00631 µM (active) | 0.0115 µM (active) | 0.00416 µM (active) | 0.00608 µM (active) | 0.00382 µM (active) | 0.00309 µM (active) | 0.00227 µM (active) | 0.0065 µM (active) | 0.0207 µM (active) | 0.00394 µM (active)
3 | Cc1cccc2c(N)c3cccc(C(=O)NCC[N+](C)(C)Cc4c([N+](=O)[O-])ncn4C)c3nc12 | 12.4 µM (inactive) | > 43.6 µM (inactive) | > 80.5 µM (inactive) | > 100 µM (inactive) | 28.2 µM (inactive) | 16.6 µM (inactive) | 52.4 µM (inactive) | 25.4 µM (inactive) | 36.6 µM (inactive) | 56.2 µM (inactive) | 38.5 µM (inactive) | 24.3 µM (inactive) | 29.9 µM (inactive) | > 66.1 µM (inactive) | 2.69 µM (inactive) | 25.8 µM (inactive) | 27.4 µM (inactive) | 10.4 µM (inactive) | 46.1 µM (inactive) | 23 µM (inactive)
4 | Cc1ccnc2sc3ccccc3c(=O)c12 | 34.7 µM (inactive) | 51.9 µM (inactive) | 81.1 µM (inactive) | 48.9 µM (inactive) | 32.7 µM (inactive) | 25.4 µM (inactive) | 44.9 µM (inactive) | 50.1 µM (inactive) | 35.6 µM (inactive) | 23.8 µM (inactive) | 29.3 µM (inactive) | 45.7 µM (inactive) | 56.8 µM (inactive) | 18 µM (inactive) | 23.6 µM (inactive) | 49.8 µM (inactive) | 22.4 µM (inactive) | 98.4 µM (inactive) | 25.9 µM (inactive) | 54.8 µM (inactive)
